Test results reported in patent publication EP4782431A1 (Suzhou Merna Therapeutics Co. Ltd, priority 2023, dated 2025).

Key:
[1] = test system: chemotherapeutic drug-induced mouse model with hand-foot syndrome; test: chemotherapeutic drug-induced mouse model with hand-foot syndrome; assay type: in vivo, ICR mice; conditions: for infiltration of inflammatory cells / thickening of the epidermal layer and the stratum corneum in the skin tissues / swelling of the toes caused by the modeling drugs: capecitabine and docetaxel models; for infiltration of inflammatory cells / thickening of the epidermal layer and the stratum corneum in the skin tissues / expression level of cytokine IL-8 in the skin tissues of the hind limb toes of the mice / expression level of cytokine IL-6 in the skin tissues of the hind limb toes of the mice: 3% ointment topical or nicotinamide 100 mg/kg oral; for swelling of the toes caused by the modeling drugs: compound of formula (I) 3% ointment topical or nicotinamide 100 mg/kg oral, once daily 16 days; for expression level of cytokine IL-8 in the skin tissues of the hind limb toes of the mice: capecitabine model; for expression level of cytokine IL-6 in the skin tissues of the hind limb toes of the mice: docetaxel model
From the text: After adaptive feeding for 7 days, SPF-grade ICR mice (male, 5-6 weeks old, with a body weight of approximately 35 g) were randomly divided into groups, including a blank control group (6 mice), a capecitabine modeling group (6 mice), a docetaxel modeling group (6 mice), a capecitabine + compound of formula (I) group (6 mice), a docetaxel + compound of formula (I) group (6 mice), a capecitabine + nicotinamide group (6 mice), and a docetaxel + nicotinamide group (6 mice). The groups were respectively administered corresponding modeling drugs by oral gavage (capecitabine at 200 mg/kg and docetaxel at 25 mg/kg) once daily; and the blank control group was administered an equivalent volume of normal saline. After administration with the chemotherapeutic drugs for 2 weeks, the ointments containing the compound of formula (I) (at a compound content of 3%) used in Example 10 were respectively applied topically in the groups, or nicotinamide was orally administered (100 mg/kg) once daily continuously for 16 days.
Measurement of the degree of swelling of toes: The degree of swelling of hind limb toes of the mice was measured using a toe swelling tester (KW-7C, Nanjing Calvin Biotechnology Co., Ltd.) before administration with the modeling drugs, after administration with the modeling drugs for 2 weeks, and before sacrifice, respectively. Before measurement, ankle joints of hind feet of the mice were marked at same positions before administration, after administration for 2 weeks, and before sacrifice. During measurement, water was properly located at the same level as the marked positions, and numerical values were recorded after becoming stable.
Pathological staining of skin tissues: Skin tissue samples were selected from hind limb toes of the mice and placed in 4% paraformaldehyde for fixation at room temperature for 4 hours. Then, the tissues were taken out and rinsed with running water for several hours. The samples were subjected to dehydration treatment with 70%, 80%, and 90% ethanol solutions, followed by treatment with a mixed solution of equal amounts of absolute alcohol and xylene for 15 minutes, and then permeabilized twice with a xylene solution for 15 minutes each time until the samples became transparent. The samples were placed in a mixture of half xylene and half paraffin for soaking for 15 minutes, and then, paraffin I and paraffin II were added for wax penetration for one hour, respectively. After embedding with paraffin, the samples were sectioned, baked, dewaxed, and hydrated. Then, the hydrated sections were placed in a hematoxylin solution (ZSGB-BIO, article No. 23041001) for staining for 3 minutes, and a differentiation solution of hydrochloric acid in ethanol was added for differentiation for 15 seconds. After rinsing with water, a Scott bluing solution (Servicebio, article No. 20230801) was added for bluing for 15 seconds. After rinsing with running water, the sections were stained with an eosin solution (Solarbio, article No. 33535) for 3 minutes, rinsed with running water, dehydrated, permeabilized, sealed, and inspected under a microscope.
Immunohistochemical staining: After baking, dewaxing, and hydration, paraffin sections of skin tissues of hind limb toes of the mice were subjected to antigen retrieval using a 0.2 M citric acid buffer solution (containing 1.534 g of citric acid, 3.1 g of sodium citrate, and 100 mL of distilled water, pH 4.7). Endogenous […] was removed using 3% hydrogen peroxide (Shandong Annjet High-Tech Disinfection Technology Co., Ltd., article No. 20290902), and the sections were incubated at room temperature for 10 minutes and then fully rinsed with a PBS buffer solution (containing 8 g of NaCl, 0.2 g of KCl, 1.44 g of Na2HPO4, and 1 M HCl, pH 7.4). The sections were permeabilized with 0.5% Triton-X-100 (AmyJet Scientific, article No. A-CSH436-100 mL), respectively permeabilized with mouse anti-IL-1β and rabbit IL-8 for 10 minutes, and not permeabilized with rabbit anti-IL-6. […]

THP-1 cells = test: m6A methylation level of THP-1 cells (LC-MS); assay type: cell-based; conditions: 24 hours
Description: 1*10^8 THP-1 cells were seeded in culture dishes, into which 4 nM and 400 nM compound of formula (I), 4 nM and 4 µM nicotinamide, and 5 µM m6A methyltransferase inhibitor UZH2 were added, respectively. The cells were cultured in an incubator containing 5% CO2 at 37°C for 24 hours. After discarding culture media and washing with PBS, the cells were centrifuged, and the supernatant was discarded. 400 µL of an RLT cell lysis buffer was added, and the cells were stored at -80°C. A portion of samples were selected, into which 400 µL of 70% ethanol was added and evenly stirred. 700 µL of a sample was transferred to an RNeasy centrifugation column and centrifuged for 15 seconds (8,000 g, 25°C). Then, 700 µL of an RW1 buffer solution was added and centrifuged for 15 seconds (8,000 g, 25°C), followed by the addition of 500 µL of an RPE buffer solution and centrifugation for 16 seconds (8,000 g, 25°C). The above steps were repeated twice, followed by centrifugation for 2 minutes to completely remove the eluent. 30 µL of nuclease-free water was added to a chromatographic column, and the cells were incubated for 5 minutes and then centrifuged for 2 minutes (12,000 g, 25°C). The steps were repeated 3 times. 2 µL of an RNA sample was selected and dissolved in 98 µL of a 10 mM Tris buffer solution, and the absorbance at 260 nm was measured using a Nanodrop to determine the RNA concentration.
50 µg of total RNA was selected and dissolved in 100 µL of nuclease-free water. Oligo (dT) magnetic beads were resuspended, 50 µL of the magnetic beads were transferred to a 1.5 mL test tube, 500 µL of a binding buffer solution was added, the mixture was allowed to stand, and the supernatant was removed. 100 µL of an RNA sample was added to 200 µL of a magnetic bead suspension for mixing, the mixture was stirred and incubated in a Thermomixer at 25°C for 5 minutes, the supernatant was discarded, and then 200 µL of a washing buffer solution was added. The steps were repeated 2 times, and then centrifugation was performed for 10 seconds (2,000 g, 25°C). 50 µL of an elution buffer solution was added and evenly mixed, the mixture was heated to 75°C, the supernatant was transferred to a new 1.5 mL test tube and purified using an RNA Clean & Concentrator kit, and the RNA concentration was determined.
20 µL (approximately 200 ng) of an mRNA sample and 20 µL of a Nuclease P1 digestion premix (including 0.5 µL of 2 unit/µL Nuclease P1, 0.4 µL of 5 M NaCl, 2 µL of 0.1 M ZnCl2, and 17.1 µL of PCR-grade water) were added into each test tube, and the mixture was stirred and incubated in a Thermomixer at 37°C for 2 hours. […] 20 µL of the supernatant was collected, an m6A methylation fragment was analyzed by LC-MS, and the m6A inhibition rate was calculated. […]

SMILES: NC(=O)[C@H]1CCCc2c1[nH]c1ccc(Cl)cc21 [Compound of formula (I), (S)-6-chloro-2,3,4,9-tetrahydro-1H-carbazole-carboxamide]
- infiltration of inflammatory cells [1]: no infiltration of inflammatory cells observed
- thickening of the epidermal layer and the stratum corneum in the skin tissues [1]: effectively alleviate
- swelling of the toes caused by the modeling drugs [1]: significantly alleviate
- expression level of cytokine IL-8 in the skin tissues of the hind limb toes of the mice [1]: significantly decrease
- expression level of cytokine IL-6 in the skin tissues of the hind limb toes of the mice [1]: significantly decrease
- m6A methylation level of mRNA of the cells (THP-1 cells; 4 nM and 400 nM, concentration-dependent): significantly inhibit
- m6A inhibition activity (THP-1 cells; 400 nM): comparable to that of the m6A methyltransferase inhibitor UZH2 at a concentration of 5 µM

SMILES: NC(=O)c1cccnc1 [Nicotinamide, nicotinamide]
- infiltration of inflammatory cells [1]: infiltration of inflammatory cells still observed
- thickening of the epidermal layer and the stratum corneum in the skin tissues [1]: mildly alleviated
- swelling of the toes caused by the modeling drugs [1]: not observed that oral administration of nicotinamide at 100 mg/kg significantly alleviated the swelling
- expression level of cytokine IL-8 in the skin tissues of the hind limb toes of the mice [1]: didn't have a significant impact
- expression level of cytokine IL-6 in the skin tissues of the hind limb toes of the mice [1]: didn't have a significant impact
- inhibitory effect on the m6A methylation level of mRNA of the cells (THP-1 cells; high concentration (4 µM)): no inhibitory effect
- inhibitory effect on the m6A methylation level of mRNA of the cells (THP-1 cells; low concentration (4 nM)): no inhibitory effect
